Key:
[1] = system: mice treated with mitomycin C; assay: Tests on leukopenia induced by mitomycin C; assay type: in vivo; details: for Number of leukocytes after 5 days / Number of leukocytes after 10 days / Number of leukocytes after 12 days / protective effect against leukopenia and toxicity of mitomycin C (in words): mice; for Number of leukocytes after 5 days / Number of leukocytes after 10 days / Number of leukocytes after 12 days / % Mice surviving after 5 days / % Mice surviving after 10 days / % Mice surviving after 12 days: mitomycin C 50 μg/mouse i.p. five days, oral carnitine(s) 300 mg/kg, quercetin 100 mg/kg; for protective effect against leukopenia and toxicity of mitomycin C (in words): oral
Description: To evaluate the immunostimulatory effect of the combination of propionyl L-carnitine or carnitine mixture plus quercetin, the effect of these products was evaluated on the toxic and immunosuppressive activity induced by mitomycin C.

[2] = Toxicology, single oral administration in the rat; details: up to 4 g/kg
[3] = system: platelet aggregation induced by collagen; assay: Platelet aggregation tests (collagen-induced, Born photometric method); assay type: cell-based, human (healthy volunteers); details: 10 minutes' incubation
Description: Blood samples taken from healthy volunteers were used for these tests.
The blood samples were treated with sodium citrate and centrifuged for 8 minutes at 100 rpm. The number of platelets was counted and brought to a fixed level of […] by adding platelet poor plasma (PPP) where necessary.
Platelet aggregation was induced using collagen (2.5 μg/ml, 5 μg/ml) as the aggregating agent and determined photometrically according to the method described by Born (Born G. V. R., Nature, 194, 927, 1962).
Platelet aggregation was measured in baseline conditions and after 10 minutes' incubation with quercetin or propionyl L-carnitine or with a combination of quercetin and propionyl L-carnitine in the same amounts.
The propionyl L-carnitine doses were 10 μg and 20 μg/ml, while the quercetin doses were 0.1 μg and 0.25 μg/ml.

[4] = system: hypercholesterolaemic rabbits; assay: Antiatherosclerotic activity tests: liver total cholesterol and triglycerides; assay type: in vivo, New Zealand rabbits; details: thirty days, carnitine(s) 400 mg/kg, quercetin 50 mg/kg
Description: The liver was then removed from each animal and used to assay total cholesterol and triglycerides according to the method of Dehoff (Dehoff J. L., Clin. Chem., 24, 433, 1978) and Levy (Levy A., Advances in Automated Analysis, 497-Thurman-Miami, 1972). Arteriosclerotic lesions at the level of the heart and aorta were assessed according to the Klurfield method ([…]. Med., 10, 35, 1979), grading them from I to IV according to the severity of the damage detected.

[5] = system: anaphylactic shock in guinea-pigs; assay: Anaphylactic shock tests (horse serum sensitisation); assay type: in vivo; details: oral; for Surviving/treated animals: carnitine(s) 300 mg/kg, quercetin 50 mg/kg
Description: These tests were performed using male albino guinea-pigs with a mean weight of 300 g; the animals received intraperitoneal injections of 1 cc of horse serum diluted 1:10.
After twenty-five days, intravenous injection of 1 cc of horse serum triggered anaphylactic shock with onset of bronchospasm and death of the animals. Five days before the shock-triggering injection, the sensitised animals were treated orally either with propionyl L-carnitine (300 mg/kg), or with carnitine mixture (300 mg/kg), or with quercetin (50 mg/kg), or with various combinations of these compounds.

[6] = system: experimental atherosclerosis in rabbits; assay: Antiatherosclerotic activity tests: biochemical and histological parameters, arteriosclerotic lesions of heart and aorta; assay type: in vivo, New Zealand rabbits; details: rabbit, cholesterol-enriched diet, thirty days; carnitine(s) 400 mg/kg, quercetin 50 mg/kg
Description: (§1) In these tests, experimental atherosclerosis was induced in rabbits by administering 0.5% of cholesterol by weight together with the standard diet.
The liver was then removed from each animal and used to assay total cholesterol and triglycerides according to the method of Dehoff (Dehoff J. L., Clin. Chem., 24, 433, 1978) and Levy (Levy A., Advances in Automated Analysis, 497—Thurman—Miami, 1972). Arteriosclerotic lesions at the level of the heart and aorta were assessed according to the Klurfield method (Klurfield D. M., J. Med., 10, 35, 1979), grading them from I to IV according to the severity of the damage detected.
The greatest degree of protective activity, however, is that achieved when carnitine and quercetin are administered in combination.

[7] = system: hypercholesterolaemic rabbits; assay: Antiatherosclerotic activity tests: plasma lipoprotein concentrations; assay type: in vivo, New Zealand rabbits; details: thirty days, carnitine(s) 400 mg/kg, quercetin 50 mg/kg
Excerpt: as §1
After thirty days' treatment, a blood sample was taken from the central artery of the ear in each animal and used to assay the lipoproteins present according to the method described by Hatch (Hatch F. T., Advan. Lipid Res., 6, 1, 1968).

[8] = system: oedema induced in the rat paw by carrageenin; assay: Anti-inflammatory activity tests: carrageenin-induced oedema of the rat paw; assay type: in vivo; details: for anti-oedema / anti-inflammatory effect (in words): rat paw, carrageenin
Description: To this end, 0.1 cc of a 1% carrageenin solution (Sigma, St, Louis, USA) were injected in the subplantar zone of the rat paw. The volume of oedema of the paw was measured by means of a mercury plethysmograph at intervals of one hour over the four-hour period following injection of carrageenin. One hour prior to injection, of carrageenin the animals received oral administrations either of propionyl L-carnitine (300 mg/kg and 150 mg/kg), or carnitine mixture (acetyl L-carnitine, propionyl L-carnitine, isovaleryl L-carnitine; 300 mg/kg and 150 mg/kg), or quercetin (100 mg/kg and 50 mg/kg), or various combinations of these compounds.

[9] = rat, oral, carnitine(s) 300 mg/kg and/or quercetin 100 mg/kg
[10] = rat, oral, carnitine(s) 150 mg/kg and/or quercetin 50 mg/kg

| Structure (SMILES) | Number of leukocytes after 5 days [1] | Number of leukocytes after 10 days [1] | Number of leukocytes after 12 days [1] | protective effect against leukopenia and toxicity of mitomycin C (in words) [1] | % Mice surviving after 5 days [1] [%] | % Mice surviving after 10 days [1] [%] | % Mice surviving after 12 days [1] [%] | Liver triglycerides [4] [mg/g] | protection against death by anaphylactic shock (in words) [5] | Surviving/treated animals [5] | biochemical and histological parameters of experimentally induced atherosclerosis [6] | Plasma HDL [7] [mg/dL] | Plasma LDL [7] [mg/dL] | Plasma VLDL [7] [mg/dL] | anti-oedema / anti-inflammatory effect (in words) [8] | % reduction of carrageenin-induced oedema after 1 h [8, 9] [%] | % reduction of carrageenin-induced oedema after 2 h [8, 9] [%] | % reduction of carrageenin-induced oedema after 3 h [8, 9] [%] | other results |
| --- | --- | --- | --- | --- | --- | --- | --- | --- | --- | --- | --- | --- | --- | --- | --- | --- | --- | --- | --- |
| CCC(=O)O[C@H](CC(=O)[O-])C[N+](C)(C)C [Propionyl L-carnitine, propionyl L-carnitine] | 6,000 ± 310 | 5,400 ± 280 | 2,100 ± 125 | modest | 60 | 45 | 30 | 165 ± 14.5 | no protective effect | 2/10 | capable of reducing | 26.4 ± 3.9 | 380 ± 21.5 | 855 ± 32.5 | modest anti-oedema effect | 12 ± 0.1 | 10 ± 0.2 | 6 ± 0.5 | signs of toxicity [2]: without any signs of toxicity; modification of platelet aggregating action induced by collagen ([3]; propionyl L-carnitine 10 μg and 20 μg/ml): did not prove capable of modifying |
| O=c1c(O)c(-c2ccc(O)c(O)c2)oc2cc(O)cc(O)c12 [Quercetin, quercetin] | 5,600 ± 480 | 4,800 ± 410 | 2,800 ± 310 | modest | 70 | 30 | 30 | 130 ± 14.5 | no protective effect | 3/10 | good inhibitory activity | 28.6 ± 3.8 | 298 ± 30.1 | 816 ± 37.5 | modest anti-oedema effect | 18 ± 1.2 | 22 ± 2.5 | 20 ± 19 | reduction of collagen-induced platelet aggregation ([3]; quercetin 0.25 μg): 50%; % reduction of carrageenin-induced oedema after 1 h [8, 10]: 8 ± 0.6%; % reduction of carrageenin-induced oedema after 2 h [8, 10]: 10 ± 0.2%; % reduction of carrageenin-induced oedema after 4 h [8, 9]: 18 ± 1.5% |
